Results as given in BindingDB's records for doi:10.7270/Q2NS0SCW (Burnham Center For Chemical Genomics, 2010).

Legend:
[1] = molecular target: Alkaline phosphatase, placental type (Homo sapiens, UniProt P05187); assay: PLAP enzyme inhibitors, dose response, selectivity assay for mouse IAP inhibitor project, biochemical, uHTS hits (AID 488879)
[2] = as above

Sequence of Alkaline phosphatase, placental type (P05187 whole entry, looked up): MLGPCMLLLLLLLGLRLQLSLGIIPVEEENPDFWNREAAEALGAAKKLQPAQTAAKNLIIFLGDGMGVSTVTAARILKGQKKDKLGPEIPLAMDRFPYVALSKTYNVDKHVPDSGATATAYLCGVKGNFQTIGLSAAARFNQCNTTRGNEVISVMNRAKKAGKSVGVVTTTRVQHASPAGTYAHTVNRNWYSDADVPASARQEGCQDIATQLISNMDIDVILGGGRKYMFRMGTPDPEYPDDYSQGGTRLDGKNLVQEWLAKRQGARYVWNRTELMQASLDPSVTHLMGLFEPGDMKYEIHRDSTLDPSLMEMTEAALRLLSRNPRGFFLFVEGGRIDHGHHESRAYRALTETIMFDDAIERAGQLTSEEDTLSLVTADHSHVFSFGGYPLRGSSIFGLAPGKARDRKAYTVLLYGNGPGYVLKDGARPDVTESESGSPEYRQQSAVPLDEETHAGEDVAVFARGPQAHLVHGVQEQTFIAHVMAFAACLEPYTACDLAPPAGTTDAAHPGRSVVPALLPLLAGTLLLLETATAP

Row | IC50 [1] | IC50 [2] | SMILES
1 | > 100 µM | – | O=C(Nn1c(O)csc1=S)C(=O)Nn1c(O)csc1=S [SMR000349781]
2 | – | 5.31 µM | O=C1Nc2ccccc2/C1=C1/SC(=S)N(NC(=O)c2ccccc2)C1=O [N-[(5Z)-4-oxo-5-(2-oxo-1H-indol-3-ylidene)-2-sulfanylidene-3-thiazolidinyl]benzamide]
3 | > 100 µM | – | C#CCOCCOCCOCCNc1nc(N2CCN(C(=O)CCCCCCCCCCNC(=O)[C@@H](CCSC)n3cc(CCO)nn3)CC2)nc(N2CCN(C(=O)CCCCCCCCCCNC(=O)[C@H]([C@@H](C)CC)n3cc(CCCCCN)nn3)CC2)n1 [MLS002153719]
4 | > 100 µM | – | O=C1C=CC(C=NNC(=S)Nc2ccccc2[N+](=O)[O-])C=C1O (stereo not given) [MLS000417596]
5 | > 100 µM | – | O=c1cc(O)cc2oc(-c3ccc(O)c(O)c3)c(O[C@@H]3O[C@H](CO)[C@@H](O)[C@H](O)[C@H]3O)c(O)c1-2 [Quercetin 3-O-beta-D-glucoside]
6 | 21.8 µM | – | NS(=O)(=O)c1ccc(N=Nc2c(=O)[nH]n3c(=O)c4c([nH]c23)CCCC4)cc1 [SMR000231775]
7 | > 100 µM | – | C#CCOCCOCCOCCNc1nc(N2CCN(C(=O)CCCCCCCCCCNC(=O)[C@H]([C@@H](C)CC)n3cc(CCCCN=C(N)N)nn3)CC2)nc(N2CCN(C(=O)CCCCCCCCCCNC(=O)[C@@H]([C@H](C)O)n3cc(C)nn3)CC2)n1 [GT-RI]
8 | > 100 µM | – | COc1cc(C=CC(=O)CC(=O)C=Cc2ccc(O)cc2)ccc1O [demethoxycurcumin]

Further lines, the compound ahead of its results:

Row | SMILES | IC50 [1] | IC50 [2]
9 | NS(=O)(=O)c1cc(C(=O)NNC2=c3ccccc3=NC2=O)ccc1Cl [2-chloro-5-[[(2-oxoindol-3-yl)amino]carbamoyl]benzenesulfonamide] | > 100 µM | –
10 | Nc1nnc(CC(=O)N/N=C/C2C=C([N+](=O)[O-])C=C(Br)C2=O)s1 (stereo not given) [2-(5-azanyl-1,3,4-thiadiazol-2-yl)-N'-[(E)-(5-bromanyl-3-nitro-6-oxidanylidene-cyclohexa-2,4-dien-1-ylidene)methyl]ethanehydrazide] | > 100 µM | –
11 | Cc1ccc(Cl)c2c1NC(=O)/C2=C1/NC(=S)NC1=O | > 100 µM | –
12 | COc1cc(C=Nn2c(O)csc2=S)ccc1O [3-[[(E)-(3-methoxy-4-oxidanylidene-cyclohexa-2,5-dien-1-ylidene)methyl]amino]-2-sulfanylidene-1,3-thiazolidin-4-one] | > 100 µM | –
13 | CC1NON=C1C(=O)NN=CC1=CC(=O)C(=O)C=C1 (stereo not given) [4-Methyl-furazan-3-carboxylic acid (3,4-dihydroxy-benzylidene)-hydrazide] | 18 µM | –
14 | Cc1ccc(/C=C2\SC(=S)N(/N=C/C3C=C([N+](=O)[O-])C=CC3=O)C2=O)o1 (stereo not given) [(5Z)-5-[(5-methylfuran-2-yl)methylidene]-3-[[(E)-(3-nitro-6-oxocyclohexa-2,4-dien-1-ylidene)methyl]amino]-2-sulfanylidene-1,3-thiazolidin-4-one] | > 100 µM | –
15 | Oc1ccc(C=Nn2c(O)csc2=S)c(O)c1O [3-[[(E)-[2,3-bis(oxidanyl)-4-oxidanylidene-cyclohexa-2,5-dien-1-ylidene]methyl]amino]-2-sulfanylidene-1,3-thiazolidin-4-one] | > 100 µM | –
